target: Mitogen-activated protein kinase 1 (Homo sapiens) (UniProt P28482); assay: Inhibition of MAPK1 (ERK2) (unknown origin) at 5.5 uM by Caliper Mobility Shift Assay

Row | SMILES | inhibition [%]
1 | CC(=O)Nc1cc(-c2c(-c3ccc(F)cc3)nc(S/C=C\C(=O)O)n2CC2CCCO2)ccn1 (racemic) | < 50
2 | CC(=O)Nc1cc(-c2c(-c3ccc(F)cc3)nc(S/C=C\C(=O)O)n2C2CC2)ccn1 | < 50
3 | CC(=O)Nc1cc(-c2c(-c3ccc(F)cc3)nc(Sc3cccc(I)n3)n2C2CCCCC2)ccn1 | < 50

target: Fibroblast growth factor receptor 1 (Homo sapiens) (UniProt P11362); assay: Inhibition of FGFR1 (unknown origin) at 5.5 uM by Caliper Mobility Shift Assay
Sequence (P11362 22-822 limits assumed): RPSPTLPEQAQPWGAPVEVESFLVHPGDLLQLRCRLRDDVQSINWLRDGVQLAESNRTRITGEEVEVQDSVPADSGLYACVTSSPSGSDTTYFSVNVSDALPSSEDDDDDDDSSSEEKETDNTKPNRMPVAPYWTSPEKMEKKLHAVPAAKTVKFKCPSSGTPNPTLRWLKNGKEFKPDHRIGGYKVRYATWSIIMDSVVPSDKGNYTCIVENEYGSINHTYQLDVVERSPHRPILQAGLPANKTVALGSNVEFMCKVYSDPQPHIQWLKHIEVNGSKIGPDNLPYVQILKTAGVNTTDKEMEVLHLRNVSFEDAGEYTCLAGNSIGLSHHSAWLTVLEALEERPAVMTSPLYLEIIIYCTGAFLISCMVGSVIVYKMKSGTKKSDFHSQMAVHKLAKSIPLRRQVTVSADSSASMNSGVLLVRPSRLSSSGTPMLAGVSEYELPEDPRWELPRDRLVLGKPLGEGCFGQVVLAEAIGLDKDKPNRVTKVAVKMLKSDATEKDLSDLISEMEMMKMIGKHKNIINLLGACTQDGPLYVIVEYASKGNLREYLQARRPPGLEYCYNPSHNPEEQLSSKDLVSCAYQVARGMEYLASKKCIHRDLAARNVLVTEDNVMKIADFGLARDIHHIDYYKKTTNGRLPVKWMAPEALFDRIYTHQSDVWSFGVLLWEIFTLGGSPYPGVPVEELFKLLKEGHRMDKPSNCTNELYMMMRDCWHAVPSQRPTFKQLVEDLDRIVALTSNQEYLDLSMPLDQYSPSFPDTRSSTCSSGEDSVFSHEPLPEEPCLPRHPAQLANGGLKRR

Row | SMILES | inhibition [%]
4 | CC(=O)Nc1cc(-c2c(-c3ccc(F)cc3)nc(S/C=C\C(=O)O)n2CC2CCCO2)ccn1 (racemic) | < 50
5 | CC(=O)Nc1cc(-c2c(-c3ccc(F)cc3)nc(S/C=C\C(=O)O)n2C2CC2)ccn1 | < 50
6 | CC(=O)Nc1cc(-c2c(-c3ccc(F)cc3)nc(Sc3cccc(I)n3)n2C2CCCCC2)ccn1 | < 50

target: T1, Activin receptor type-1 (Homo sapiens) (UniProt Q04771); assay: Inhibition of ACVR1 (ALK2) (unknown origin) at 5.5 uM by Caliper Mobility Shift Assay
T1 sequence (whole entry): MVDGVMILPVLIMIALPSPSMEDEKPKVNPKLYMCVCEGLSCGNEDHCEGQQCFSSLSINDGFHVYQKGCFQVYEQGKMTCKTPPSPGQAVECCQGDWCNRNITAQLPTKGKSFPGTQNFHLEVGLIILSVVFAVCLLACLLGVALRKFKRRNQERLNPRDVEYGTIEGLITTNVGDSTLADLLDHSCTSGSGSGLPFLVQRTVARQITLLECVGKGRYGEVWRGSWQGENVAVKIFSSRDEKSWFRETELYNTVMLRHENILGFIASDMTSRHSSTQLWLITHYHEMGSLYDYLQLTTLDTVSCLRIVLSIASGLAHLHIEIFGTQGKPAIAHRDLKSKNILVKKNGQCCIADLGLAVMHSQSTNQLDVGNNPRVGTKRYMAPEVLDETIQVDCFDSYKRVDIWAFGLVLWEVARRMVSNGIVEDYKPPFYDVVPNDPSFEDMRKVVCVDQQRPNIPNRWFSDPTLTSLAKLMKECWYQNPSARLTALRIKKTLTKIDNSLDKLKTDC

Row | SMILES | inhibition [%]
7 | CC(=O)Nc1cc(-c2c(-c3ccc(F)cc3)nc(S/C=C\C(=O)O)n2CC2CCCO2)ccn1 (racemic) | < 50
8 | CC(=O)Nc1cc(-c2c(-c3ccc(F)cc3)nc(S/C=C\C(=O)O)n2C2CC2)ccn1 | < 50
9 | CC(=O)Nc1cc(-c2c(-c3ccc(F)cc3)nc(Sc3cccc(I)n3)n2C2CCCCC2)ccn1 | < 50

target: T2, Aurora kinase A (Homo sapiens) (UniProt O14965); assay: Inhibition of AURKA (unknown origin) at 5.5 uM by Caliper Mobility Shift Assay
T2 sequence (whole entry): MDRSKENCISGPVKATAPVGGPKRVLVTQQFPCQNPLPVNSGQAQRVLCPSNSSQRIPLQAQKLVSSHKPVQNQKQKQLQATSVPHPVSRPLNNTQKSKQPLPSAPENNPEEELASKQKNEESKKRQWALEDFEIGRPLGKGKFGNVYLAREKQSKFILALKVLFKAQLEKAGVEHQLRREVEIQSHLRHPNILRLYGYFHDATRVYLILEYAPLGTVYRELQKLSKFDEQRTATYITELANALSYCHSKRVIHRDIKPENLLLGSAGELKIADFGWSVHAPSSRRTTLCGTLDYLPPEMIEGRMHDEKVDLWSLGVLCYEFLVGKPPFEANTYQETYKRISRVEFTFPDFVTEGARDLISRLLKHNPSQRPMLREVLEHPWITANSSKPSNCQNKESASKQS

Row | SMILES | inhibition [%]
10 | CC(=O)Nc1cc(-c2c(-c3ccc(F)cc3)nc(S/C=C\C(=O)O)n2CC2CCCO2)ccn1 (racemic) | < 50
11 | CC(=O)Nc1cc(-c2c(-c3ccc(F)cc3)nc(S/C=C\C(=O)O)n2C2CC2)ccn1 | < 50
12 | CC(=O)Nc1cc(-c2c(-c3ccc(F)cc3)nc(Sc3cccc(I)n3)n2C2CCCCC2)ccn1 | < 50

target: Receptor tyrosine-protein kinase erbB-4 (Homo sapiens) (UniProt Q15303); assay: Inhibition of ERBB4 (HER4) (unknown origin) at 5.5 uM by Caliper Mobility Shift Assay
Sequence (Q15303 whole entry): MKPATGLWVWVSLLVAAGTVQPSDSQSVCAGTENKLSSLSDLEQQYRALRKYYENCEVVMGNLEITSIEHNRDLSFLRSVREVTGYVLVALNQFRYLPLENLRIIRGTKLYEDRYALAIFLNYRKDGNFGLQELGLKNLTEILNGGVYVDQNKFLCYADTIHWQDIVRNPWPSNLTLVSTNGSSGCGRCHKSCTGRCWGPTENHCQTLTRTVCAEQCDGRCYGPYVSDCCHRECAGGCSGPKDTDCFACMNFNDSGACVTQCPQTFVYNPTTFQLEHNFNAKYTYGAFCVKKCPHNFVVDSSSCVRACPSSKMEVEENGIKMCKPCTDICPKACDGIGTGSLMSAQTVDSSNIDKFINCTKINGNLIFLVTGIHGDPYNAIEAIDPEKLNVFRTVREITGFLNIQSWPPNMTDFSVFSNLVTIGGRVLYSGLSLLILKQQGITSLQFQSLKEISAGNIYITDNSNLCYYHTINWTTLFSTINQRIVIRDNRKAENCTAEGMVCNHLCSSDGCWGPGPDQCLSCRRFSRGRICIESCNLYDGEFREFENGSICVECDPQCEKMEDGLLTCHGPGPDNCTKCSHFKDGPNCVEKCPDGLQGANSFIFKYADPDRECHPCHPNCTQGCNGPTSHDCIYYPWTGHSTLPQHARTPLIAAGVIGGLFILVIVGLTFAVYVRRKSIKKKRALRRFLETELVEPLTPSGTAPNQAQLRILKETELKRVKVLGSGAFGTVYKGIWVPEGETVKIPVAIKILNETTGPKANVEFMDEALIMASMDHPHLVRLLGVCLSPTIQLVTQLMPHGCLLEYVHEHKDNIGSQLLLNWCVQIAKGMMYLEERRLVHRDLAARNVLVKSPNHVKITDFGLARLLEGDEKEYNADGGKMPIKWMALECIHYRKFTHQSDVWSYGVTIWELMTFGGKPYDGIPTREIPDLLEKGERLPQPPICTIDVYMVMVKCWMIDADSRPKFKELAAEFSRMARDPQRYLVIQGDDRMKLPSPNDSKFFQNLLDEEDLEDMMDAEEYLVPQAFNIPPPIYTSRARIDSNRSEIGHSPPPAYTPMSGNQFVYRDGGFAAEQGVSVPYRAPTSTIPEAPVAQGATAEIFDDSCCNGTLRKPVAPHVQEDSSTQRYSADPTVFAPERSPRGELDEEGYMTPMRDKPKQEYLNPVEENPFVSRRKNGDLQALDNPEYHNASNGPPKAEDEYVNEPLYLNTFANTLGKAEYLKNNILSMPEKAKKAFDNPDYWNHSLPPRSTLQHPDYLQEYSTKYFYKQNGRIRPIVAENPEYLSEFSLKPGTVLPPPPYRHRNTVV

Row | SMILES | inhibition [%]
13 | CC(=O)Nc1cc(-c2c(-c3ccc(F)cc3)nc(S/C=C\C(=O)O)n2CC2CCCO2)ccn1 (racemic) | < 50
14 | CC(=O)Nc1cc(-c2c(-c3ccc(F)cc3)nc(S/C=C\C(=O)O)n2C2CC2)ccn1 | < 50
15 | CC(=O)Nc1cc(-c2c(-c3ccc(F)cc3)nc(Sc3cccc(I)n3)n2C2CCCCC2)ccn1 | < 50

target: Mitogen-activated protein kinase 14 (Homo sapiens, UniProt Q16539); assay: Inhibition of p38a (unknown origin) at 5.5 uM by Caliper Mobility Shift Assay
Sequence (Q16539 whole entry): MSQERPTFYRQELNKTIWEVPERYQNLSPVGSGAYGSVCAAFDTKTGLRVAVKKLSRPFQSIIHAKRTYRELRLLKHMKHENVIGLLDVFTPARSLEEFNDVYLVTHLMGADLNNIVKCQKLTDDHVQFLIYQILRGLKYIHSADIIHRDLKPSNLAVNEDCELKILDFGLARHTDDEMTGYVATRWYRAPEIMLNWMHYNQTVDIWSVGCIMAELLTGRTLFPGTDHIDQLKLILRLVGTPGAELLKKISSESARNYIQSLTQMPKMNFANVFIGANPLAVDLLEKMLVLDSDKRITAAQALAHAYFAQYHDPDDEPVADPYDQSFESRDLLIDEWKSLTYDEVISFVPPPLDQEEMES

Row | SMILES | inhibition [%]
16 | CC(=O)Nc1cc(-c2c(-c3ccc(F)cc3)nc(S/C=C\C(=O)O)n2CC2CCCO2)ccn1 (racemic) | < 50
17 | CC(=O)Nc1cc(-c2c(-c3ccc(F)cc3)nc(S/C=C\C(=O)O)n2C2CC2)ccn1 | < 50
18 | CC(=O)Nc1cc(-c2c(-c3ccc(F)cc3)nc(Sc3cccc(I)n3)n2C2CCCCC2)ccn1 | < 50

target: MAP kinase-interacting serine/threonine-protein kinase 1 (Homo sapiens) (UniProt Q9BUB5); assay: Inhibition of MKNK1 (unknown origin) at 5.5 uM by Caliper Mobility Shift Assay
Sequence (Q9BUB5 whole entry, looked up): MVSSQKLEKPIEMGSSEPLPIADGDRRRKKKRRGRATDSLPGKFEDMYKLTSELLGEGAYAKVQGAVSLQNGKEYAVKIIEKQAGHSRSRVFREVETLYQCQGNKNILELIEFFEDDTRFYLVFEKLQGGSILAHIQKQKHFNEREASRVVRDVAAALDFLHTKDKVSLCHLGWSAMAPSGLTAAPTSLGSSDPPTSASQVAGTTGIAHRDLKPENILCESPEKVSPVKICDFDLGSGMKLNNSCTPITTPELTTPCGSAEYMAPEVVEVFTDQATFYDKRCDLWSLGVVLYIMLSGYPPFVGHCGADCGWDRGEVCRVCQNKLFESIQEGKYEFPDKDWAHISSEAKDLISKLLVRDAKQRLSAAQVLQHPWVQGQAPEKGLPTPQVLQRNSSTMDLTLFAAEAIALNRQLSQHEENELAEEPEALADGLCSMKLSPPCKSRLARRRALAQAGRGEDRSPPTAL

Row | SMILES | inhibition [%]
19 | CC(=O)Nc1cc(-c2c(-c3ccc(F)cc3)nc(S/C=C\C(=O)O)n2CC2CCCO2)ccn1 (racemic) | < 50
20 | CC(=O)Nc1cc(-c2c(-c3ccc(F)cc3)nc(S/C=C\C(=O)O)n2C2CC2)ccn1 | < 50
21 | CC(=O)Nc1cc(-c2c(-c3ccc(F)cc3)nc(Sc3cccc(I)n3)n2C2CCCCC2)ccn1 | < 50

target: T3, MAP kinase-activated protein kinase 5 (Homo sapiens) (UniProt Q8IW41); assay: Inhibition of MAPKAPK5 (MK5) (unknown origin) at 5.5 uM by Caliper Mobility Shift Assay
T3 sequence (whole entry): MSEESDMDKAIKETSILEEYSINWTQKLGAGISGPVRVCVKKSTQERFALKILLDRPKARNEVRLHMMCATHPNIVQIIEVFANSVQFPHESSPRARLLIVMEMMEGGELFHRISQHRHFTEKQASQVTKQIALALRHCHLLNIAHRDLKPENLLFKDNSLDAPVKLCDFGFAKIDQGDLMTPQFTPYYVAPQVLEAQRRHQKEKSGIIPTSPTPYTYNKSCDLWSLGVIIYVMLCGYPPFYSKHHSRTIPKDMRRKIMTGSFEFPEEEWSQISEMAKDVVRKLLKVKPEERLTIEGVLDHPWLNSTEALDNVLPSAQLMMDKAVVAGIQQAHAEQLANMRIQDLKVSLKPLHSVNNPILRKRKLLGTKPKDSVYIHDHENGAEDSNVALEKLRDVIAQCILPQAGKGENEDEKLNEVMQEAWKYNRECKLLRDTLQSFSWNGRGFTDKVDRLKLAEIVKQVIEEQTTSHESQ

Row | SMILES | inhibition [%]
22 | CC(=O)Nc1cc(-c2c(-c3ccc(F)cc3)nc(S/C=C\C(=O)O)n2CC2CCCO2)ccn1 (racemic) | < 50
23 | CC(=O)Nc1cc(-c2c(-c3ccc(F)cc3)nc(S/C=C\C(=O)O)n2C2CC2)ccn1 | < 50
24 | CC(=O)Nc1cc(-c2c(-c3ccc(F)cc3)nc(Sc3cccc(I)n3)n2C2CCCCC2)ccn1 | < 50

target: T4, Interleukin-1 receptor-associated kinase 4 (Homo sapiens) (UniProt Q9NWZ3); assay: Inhibition of IRAK4 (unknown origin) at 5.5 uM by Caliper Mobility Shift Assay
T4 sequence (whole entry): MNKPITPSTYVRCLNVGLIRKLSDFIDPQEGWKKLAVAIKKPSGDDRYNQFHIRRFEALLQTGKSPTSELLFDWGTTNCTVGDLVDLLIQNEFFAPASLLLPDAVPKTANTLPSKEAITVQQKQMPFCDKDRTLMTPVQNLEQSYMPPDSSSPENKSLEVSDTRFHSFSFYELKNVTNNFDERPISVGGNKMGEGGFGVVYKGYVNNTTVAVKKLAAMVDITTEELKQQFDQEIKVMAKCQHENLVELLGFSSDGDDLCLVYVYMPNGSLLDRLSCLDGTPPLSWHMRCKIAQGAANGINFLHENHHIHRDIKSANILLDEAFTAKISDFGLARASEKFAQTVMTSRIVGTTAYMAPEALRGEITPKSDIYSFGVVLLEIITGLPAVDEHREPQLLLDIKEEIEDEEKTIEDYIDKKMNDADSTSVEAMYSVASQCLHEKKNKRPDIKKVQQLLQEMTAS

Row | SMILES | inhibition [%]
25 | CC(=O)Nc1cc(-c2c(-c3ccc(F)cc3)nc(S/C=C\C(=O)O)n2CC2CCCO2)ccn1 (racemic) | < 50
26 | CC(=O)Nc1cc(-c2c(-c3ccc(F)cc3)nc(S/C=C\C(=O)O)n2C2CC2)ccn1 | < 50
27 | CC(=O)Nc1cc(-c2c(-c3ccc(F)cc3)nc(Sc3cccc(I)n3)n2C2CCCCC2)ccn1 | < 50

target: Mitogen-activated protein kinase 10 (Homo sapiens, UniProt P53779); assay: Inhibition of JNK3 (unknown origin) assessed as phosphorylation of ATF-2 by ELISA
Sequence (P53779 whole entry): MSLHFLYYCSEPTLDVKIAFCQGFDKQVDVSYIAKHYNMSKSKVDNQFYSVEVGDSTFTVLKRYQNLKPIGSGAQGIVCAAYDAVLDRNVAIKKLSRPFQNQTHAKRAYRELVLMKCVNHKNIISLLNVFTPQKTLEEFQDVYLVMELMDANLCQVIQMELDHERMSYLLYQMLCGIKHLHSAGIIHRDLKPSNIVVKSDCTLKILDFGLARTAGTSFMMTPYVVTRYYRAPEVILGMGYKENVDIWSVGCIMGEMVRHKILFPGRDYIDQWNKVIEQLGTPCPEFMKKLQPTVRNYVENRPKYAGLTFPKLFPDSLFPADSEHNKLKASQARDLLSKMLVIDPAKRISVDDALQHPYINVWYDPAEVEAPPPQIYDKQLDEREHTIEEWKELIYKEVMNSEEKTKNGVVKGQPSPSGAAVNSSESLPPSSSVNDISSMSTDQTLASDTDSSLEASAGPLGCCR

Row | SMILES | IC50 [nM]
28 | CC(=O)Nc1cc(-c2c(-c3ccc(F)cc3)nc(S/C=C\C(=O)O)n2CC2CCCO2)ccn1 (racemic) | 35
29 | CC(=O)Nc1cc(-c2c(-c3ccc(F)cc3)nc(S/C=C\C(=O)O)n2C2CC2)ccn1 | 82
30 | CC(=O)Nc1cc(-c2c(-c3ccc(F)cc3)nc(Sc3cccc(I)n3)n2C2CCCCC2)ccn1 | 1530

target: Epidermal growth factor receptor (Homo sapiens) (UniProt P00533); assay: Inhibition of EGFR (HER1) (unknown origin) at 5.5 uM by Caliper Mobility Shift Assay

Row | SMILES | inhibition [%]
31 | CC(=O)Nc1cc(-c2c(-c3ccc(F)cc3)nc(S/C=C\C(=O)O)n2CC2CCCO2)ccn1 (racemic) | < 50
32 | CC(=O)Nc1cc(-c2c(-c3ccc(F)cc3)nc(S/C=C\C(=O)O)n2C2CC2)ccn1 | < 50
33 | CC(=O)Nc1cc(-c2c(-c3ccc(F)cc3)nc(Sc3cccc(I)n3)n2C2CCCCC2)ccn1 | < 50

target: Insulin receptor (Homo sapiens) (UniProt P06213); assay: Inhibition of INSR (unknown origin) at 5.5 uM by Caliper Mobility Shift Assay

Row | SMILES | inhibition [%]
34 | CC(=O)Nc1cc(-c2c(-c3ccc(F)cc3)nc(S/C=C\C(=O)O)n2CC2CCCO2)ccn1 (racemic) | < 50
35 | CC(=O)Nc1cc(-c2c(-c3ccc(F)cc3)nc(S/C=C\C(=O)O)n2C2CC2)ccn1 | < 50
36 | CC(=O)Nc1cc(-c2c(-c3ccc(F)cc3)nc(Sc3cccc(I)n3)n2C2CCCCC2)ccn1 | < 50

target: Tyrosine-protein kinase CSK (Homo sapiens) (UniProt P41240); assay: Inhibition of CSK (unknown origin) at 5.5 uM by Caliper Mobility Shift Assay
Sequence (P41240 2-450 limits assumed): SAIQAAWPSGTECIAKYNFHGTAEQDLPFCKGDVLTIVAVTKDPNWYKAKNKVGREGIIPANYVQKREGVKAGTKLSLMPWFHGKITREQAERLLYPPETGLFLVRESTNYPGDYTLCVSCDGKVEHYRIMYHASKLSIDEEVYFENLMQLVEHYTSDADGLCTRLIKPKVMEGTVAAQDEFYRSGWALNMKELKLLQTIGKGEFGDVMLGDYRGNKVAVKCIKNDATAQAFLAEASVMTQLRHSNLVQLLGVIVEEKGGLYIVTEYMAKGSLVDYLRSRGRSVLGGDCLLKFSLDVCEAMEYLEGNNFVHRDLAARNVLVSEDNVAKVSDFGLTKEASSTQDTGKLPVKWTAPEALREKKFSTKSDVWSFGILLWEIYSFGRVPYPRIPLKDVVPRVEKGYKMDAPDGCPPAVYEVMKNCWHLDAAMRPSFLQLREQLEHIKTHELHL

Row | SMILES | inhibition [%]
37 | CC(=O)Nc1cc(-c2c(-c3ccc(F)cc3)nc(S/C=C\C(=O)O)n2CC2CCCO2)ccn1 (racemic) | < 50
38 | CC(=O)Nc1cc(-c2c(-c3ccc(F)cc3)nc(S/C=C\C(=O)O)n2C2CC2)ccn1 | < 50
39 | CC(=O)Nc1cc(-c2c(-c3ccc(F)cc3)nc(Sc3cccc(I)n3)n2C2CCCCC2)ccn1 | < 50

target: Hepatocyte growth factor receptor (Homo sapiens) (UniProt P08581); assay: Inhibition of MET (unknown origin) at 5.5 uM by Caliper Mobility Shift Assay

Row | SMILES | inhibition [%]
40 | CC(=O)Nc1cc(-c2c(-c3ccc(F)cc3)nc(S/C=C\C(=O)O)n2CC2CCCO2)ccn1 (racemic) | < 50
41 | CC(=O)Nc1cc(-c2c(-c3ccc(F)cc3)nc(S/C=C\C(=O)O)n2C2CC2)ccn1 | < 50
42 | CC(=O)Nc1cc(-c2c(-c3ccc(F)cc3)nc(Sc3cccc(I)n3)n2C2CCCCC2)ccn1 | < 50

target: Ribosomal protein S6 kinase beta-2 (Homo sapiens) (UniProt Q9UBS0); assay: Inhibition of S6K (unknown origin) at 5.5 uM by Caliper Mobility Shift Assay

Row | SMILES | inhibition [%]
43 | CC(=O)Nc1cc(-c2c(-c3ccc(F)cc3)nc(S/C=C\C(=O)O)n2CC2CCCO2)ccn1 (racemic) | < 50
44 | CC(=O)Nc1cc(-c2c(-c3ccc(F)cc3)nc(S/C=C\C(=O)O)n2C2CC2)ccn1 | < 50
45 | CC(=O)Nc1cc(-c2c(-c3ccc(F)cc3)nc(Sc3cccc(I)n3)n2C2CCCCC2)ccn1 | < 50

target: Tyrosine-protein kinase ABL1 (Homo sapiens) (UniProt P00519); assay: Inhibition of ABL1 (unknown origin) at 5.5 uM by Caliper Mobility Shift Assay
Sequence (P00519 whole entry): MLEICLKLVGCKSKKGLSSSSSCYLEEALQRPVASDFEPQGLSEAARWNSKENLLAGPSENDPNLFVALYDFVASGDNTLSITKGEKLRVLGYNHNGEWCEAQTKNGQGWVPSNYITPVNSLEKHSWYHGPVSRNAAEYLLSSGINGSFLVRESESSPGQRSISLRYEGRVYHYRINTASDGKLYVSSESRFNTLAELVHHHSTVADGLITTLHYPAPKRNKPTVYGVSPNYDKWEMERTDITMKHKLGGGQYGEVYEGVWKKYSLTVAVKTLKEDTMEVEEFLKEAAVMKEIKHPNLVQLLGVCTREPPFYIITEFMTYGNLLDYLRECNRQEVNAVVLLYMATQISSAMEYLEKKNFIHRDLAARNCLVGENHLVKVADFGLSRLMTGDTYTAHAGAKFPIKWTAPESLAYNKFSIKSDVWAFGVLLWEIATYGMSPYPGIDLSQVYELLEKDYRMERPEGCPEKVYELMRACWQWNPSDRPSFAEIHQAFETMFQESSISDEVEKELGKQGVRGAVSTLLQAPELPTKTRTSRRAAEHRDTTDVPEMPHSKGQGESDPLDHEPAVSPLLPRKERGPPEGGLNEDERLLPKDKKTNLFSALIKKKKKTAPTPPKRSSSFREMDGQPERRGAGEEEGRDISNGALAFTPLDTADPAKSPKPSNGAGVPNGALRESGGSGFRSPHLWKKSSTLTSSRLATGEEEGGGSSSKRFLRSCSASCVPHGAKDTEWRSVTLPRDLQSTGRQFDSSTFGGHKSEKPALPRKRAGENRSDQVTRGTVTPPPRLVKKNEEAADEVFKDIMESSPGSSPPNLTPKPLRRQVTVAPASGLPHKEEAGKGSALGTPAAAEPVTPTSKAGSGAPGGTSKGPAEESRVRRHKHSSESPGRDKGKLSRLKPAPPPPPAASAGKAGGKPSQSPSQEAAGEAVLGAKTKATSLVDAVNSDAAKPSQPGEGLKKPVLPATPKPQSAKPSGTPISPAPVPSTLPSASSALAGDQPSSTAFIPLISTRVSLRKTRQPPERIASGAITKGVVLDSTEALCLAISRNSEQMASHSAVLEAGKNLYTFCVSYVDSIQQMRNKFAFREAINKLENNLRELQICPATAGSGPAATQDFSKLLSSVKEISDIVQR

Row | SMILES | inhibition [%]
46 | CC(=O)Nc1cc(-c2c(-c3ccc(F)cc3)nc(S/C=C\C(=O)O)n2CC2CCCO2)ccn1 (racemic) | < 50
47 | CC(=O)Nc1cc(-c2c(-c3ccc(F)cc3)nc(S/C=C\C(=O)O)n2C2CC2)ccn1 | < 50
48 | CC(=O)Nc1cc(-c2c(-c3ccc(F)cc3)nc(Sc3cccc(I)n3)n2C2CCCCC2)ccn1 | < 50

Reference: ChEMBL document CHEMBL3393036, “Tetra-substituted pyridinylimidazoles as dual inhibitors of p38α mitogen-activated protein kinase and c-Jun N-terminal kinase 3 for potential treatment of neurodegenerative diseases” (J Med Chem, 2015)
